Numbered stars: 1 amine (or outer) side, 2 acyl side, 3 side chain; on linkers, the order of the positions; unused ones are H or OH. Bridge positions count the residues as written; N and C are the ends. Square brackets hold non-standard residues; d marks the D form. Peptide text beside a SMILES is read from it. * marks the point of attachment. ξ: configuration not given here. Pro(4S-NHCO(5-Cl-2-thienyl)) = O=C(N[C@@H]1CN[C@H](C(=O)O)C1)c1ccc(Cl)s1; ξPro(4ξ-NHCOC6H4-4-Cl) = O=C(NC1CNC(C(=O)O)C1)c1ccc(Cl)cc1; 2Thenoyl(5-Cl) = O=C(c1ccc(Cl)s1)*; Benzoyl(4-Cl) = O=C(c1ccc(Cl)cc1)*; Cysteamide = C(CS[*:3])N[*:1]; X1 = O=C(/C=C/c1ccccc1)*; Api = NC1(C(=O)O)CCNCC1; Mpa = O=C(O)CCS
Target: MDM2 (Homo sapiens, UniProt Q00987)
Sequence (Q00987 whole entry): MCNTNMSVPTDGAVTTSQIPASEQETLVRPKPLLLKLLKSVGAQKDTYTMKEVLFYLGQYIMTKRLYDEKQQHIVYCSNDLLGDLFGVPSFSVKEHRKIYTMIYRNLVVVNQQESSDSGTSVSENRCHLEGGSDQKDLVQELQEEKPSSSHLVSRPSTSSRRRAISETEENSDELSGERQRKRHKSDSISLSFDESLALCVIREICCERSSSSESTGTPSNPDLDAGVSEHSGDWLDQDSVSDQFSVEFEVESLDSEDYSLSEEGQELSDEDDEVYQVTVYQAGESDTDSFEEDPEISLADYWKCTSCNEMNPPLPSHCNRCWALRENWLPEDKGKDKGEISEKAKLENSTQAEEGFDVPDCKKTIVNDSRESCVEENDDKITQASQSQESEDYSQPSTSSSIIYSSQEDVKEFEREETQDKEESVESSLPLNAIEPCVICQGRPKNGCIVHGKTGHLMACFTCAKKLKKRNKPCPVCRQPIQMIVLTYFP
Assay: MDM2 binding screen: displacement of fluorescent p53 peptide probe FP53 (fluorescence polarization)
Details: crude macrocycle reactions; for fraction fluorescent probe displaced, Screen: initial screen
How it was run: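 Macrocycle reaction products at a final 10 µM were tested for displacement of a p53-based fluorescent peptide from human MDM2. Fluorescence anisotropy (ex 485/em 535 nm) was read once per macrocycle at 25 °C.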

Compound | fraction fluorescent probe displaced, Screen (Acid 25) | fraction fluorescent probe displaced, Replicate (Acid 25) | fraction fluorescent probe displaced, Screen (Acid 91) | fraction fluorescent probe displaced, Replicate (Acid 91) | also measured
O=C1CCSSCCNC(=O)[C@H]2CCCN(C2)C(=O)[C@H](CNC(=O)c2ccc(Cl)cc2)NC(=O)[C@H](Cc2c[nH]c3ccccc23)N1 [X W D3 B4 Acid 25] | 0.28 | 0.12 | – | – | –
O=C(/C=C/c1ccccc1)NC[C@@H]1NC(=O)[C@H](Cc2c[nH]c3ccccc23)NC(=O)CCSSCCNC(=O)[C@H]2CCCN(C2)C1=O [X W D3 B4 Acid 91] | – | – | 0.35 | 0.07 | –
O=C1CCSSCCNC(=O)c2cccc(c2)CNC(=O)[C@H](CNC(=O)c2ccc(Cl)s2)NC(=O)[C@H](Cc2c[nH]c3ccccc23)N1 [X W D3 B5 Acid 14] | – | – | – | – | fraction fluorescent probe displaced, Screen (Acid 14): 0.31; fraction fluorescent probe displaced, Replicate (Acid 14): 0.07
O=C1CCSSCCNC(=O)c2cccc(c2)CNC(=O)C(CNC(=O)c2ccc(Cl)cc2)NC(=O)C(Cc2c[nH]c3ccccc23)N1 (stereo not drawn) [X W D3 B5 Acid 25] | 0.12 | 0.17 | – | – | –
O=C(/C=C/c1ccccc1)NC[C@@H]1NC(=O)[C@H](Cc2c[nH]c3ccccc23)NC(=O)CCSSCCNC(=O)c2cccc(c2)CNC1=O [X W D3 B5 Acid 91] | – | – | 0.0563 | 0.17 | –
O=C1CCSSCCNC(=O)[C@@H]2CCCN2C(=O)[C@@H]2C[C@H](NC(=O)c3ccc(Cl)s3)CN2C(=O)[C@H](Cc2c[nH]c3ccccc23)N1 [X W D5 B1 Acid 14] ([Mpa]W[Pro(4S-NHCO(5-Cl-2-thienyl))]P-Cysteamide; disulfide 1-C) | – | – | – | – | fraction fluorescent probe displaced, Screen (Acid 14): 0.28; fraction fluorescent probe displaced, Replicate (Acid 14): 0.22
O=C1CCSSCCNC(=O)C2CCCN2C(=O)C2CC(NC(=O)c3ccc(Cl)cc3)CN2C(=O)C(Cc2c[nH]c3ccccc23)N1 (stereo not drawn) [X W D5 B1 Acid 25] ([Mpa]W[ξPro(4ξ-NHCOC6H4-4-Cl)]P-Cysteamide; disulfide 1-C; configuration not given here) | 0.22 | 0.28 | – | – | –
O=C(C=Cc1ccccc1)NC1CC2C(=O)N3CCCC3C(=O)NCCSSCCC(=O)NC(Cc3c[nH]c4ccccc34)C(=O)N2C1 (stereo not drawn) [X W D5 B1 Acid 91] | – | – | 0.08 | 0.07 | –
O=C1CCSSCCNC(=O)C2CCCN(C2)C(=O)C2CC(NC(=O)c3ccc(Cl)cc3)CN2C(=O)C(Cc2c[nH]c3ccccc23)N1 (stereo not drawn) [X W D5 B4 Acid 25] | 0.22 | 0.15 | – | – | –
O=C(C=Cc1ccccc1)NC1CC2C(=O)N3CCCC(C3)C(=O)NCCSSCCC(=O)NC(Cc3c[nH]c4ccccc34)C(=O)N2C1 (stereo not drawn) [X W D5 B4 Acid 91] | – | – | 0.16 | 0.09 | –
O=C1CCSSCCNC(=O)[C@@H]2CCCN2C(=O)C2(CCN(C(=O)c3ccc(Cl)s3)CC2)NC(=O)[C@H](Cc2c[nH]c3ccccc23)N1 [X W D6 B1 Acid 14] ([Mpa]W[Api](2Thenoyl(5-Cl))P-Cysteamide; disulfide 1-C) | – | – | – | – | fraction fluorescent probe displaced, Screen (Acid 14): 0.14; fraction fluorescent probe displaced, Replicate (Acid 14): 0.17
O=C1CCSSCCNC(=O)[C@@H]2CCCN2C(=O)C2(CCN(C(=O)c3ccc(Cl)cc3)CC2)NC(=O)[C@H](Cc2c[nH]c3ccccc23)N1 [X W D6 B1 Acid 25] ([Mpa]W[Api](Benzoyl(4-Cl))P-Cysteamide; disulfide 1-C) | 0.28 | 0.25 | – | – | –
O=C1CCSSCCNC(=O)[C@@H]2CCCN2C(=O)C2(CCN(C(=O)/C=C/c3ccccc3)CC2)NC(=O)[C@H](Cc2c[nH]c3ccccc23)N1 [X W D6 B1 Acid 91] ([Mpa]W[Api](X1)P-Cysteamide; disulfide 1-C) | – | – | 0.14 | 0.0168 | –
O=C1CCNC(=O)C2(CCN(C(=O)c3ccc(Cl)cc3)CC2)NC(=O)[C@H](Cc2c[nH]c3ccccc23)NC(=O)CCSSCCN1 [X W D6 B2 Acid 25] | 0.0244 | 0.0465 | – | – | –
O=C1CCNC(=O)C2(CCN(C(=O)C=Cc3ccccc3)CC2)NC(=O)C(Cc2c[nH]c3ccccc23)NC(=O)CCSSCCN1 (stereo not drawn) [X W D6 B2 Acid 91] | – | – | 0.32 | 0.0168 | –
O=C1CCSSCCNC(=O)C2CCCN(C2)C(=O)C2(CCN(C(=O)c3ccc(Cl)s3)CC2)NC(=O)C(Cc2c[nH]c3ccccc23)N1 (stereo not drawn) [X W D6 B4 Acid 14] | – | – | – | – | fraction fluorescent probe displaced, Screen (Acid 14): 0.11; fraction fluorescent probe displaced, Replicate (Acid 14): 0.38
O=C1CCSSCCNC(=O)C2CCCN(C2)C(=O)C2(CCN(C(=O)c3ccc(Cl)cc3)CC2)NC(=O)C(Cc2c[nH]c3ccccc23)N1 (stereo not drawn) [X W D6 B4 Acid 25] | 0.28 | 0.20 | – | – | –
O=C1CCSSCCNC(=O)[C@H]2CCCN(C2)C(=O)C2(CCN(C(=O)/C=C/c3ccccc3)CC2)NC(=O)[C@H](Cc2c[nH]c3ccccc23)N1 [X W D6 B4 Acid 91] | – | – | 0.11 | 0.09 | –
O=C1CCSSCCNC(=O)c2cccc(c2)CNC(=O)C2(CCN(C(=O)c3ccc(Cl)s3)CC2)NC(=O)[C@H](Cc2c[nH]c3ccccc23)N1 [X W D6 B5 Acid 14] | – | – | – | – | fraction fluorescent probe displaced, Screen (Acid 14): 0.14; fraction fluorescent probe displaced, Replicate (Acid 14): 0.22
O=C1CCSSCCNC(=O)c2cccc(c2)CNC(=O)C2(CCN(C(=O)c3ccc(Cl)cc3)CC2)NC(=O)C(Cc2c[nH]c3ccccc23)N1 (stereo not drawn) [X W D6 B5 Acid 25] | 0.15 | 0.12 | – | – | –
O=C1CCSSCCNC(=O)c2cccc(c2)CNC(=O)C2(CCN(C(=O)/C=C/c3ccccc3)CC2)NC(=O)[C@H](Cc2c[nH]c3ccccc23)N1 [X W D6 B5 Acid 91] | – | – | 0.40 | 0.34 | –
O=C1CCNC(=O)C2CN(C(=O)c3ccc(Cl)s3)CCN2C(=O)C(Cc2c[nH]c3ccccc23)NC(=O)CCSSCCN1 (stereo not drawn) [X W D7 B2 Acid 14] | – | – | – | – | fraction fluorescent probe displaced, Screen (Acid 14): 0.26; fraction fluorescent probe displaced, Replicate (Acid 14): 0.10
O=C1CCNC(=O)C2CN(C(=O)c3ccc(Cl)cc3)CCN2C(=O)C(Cc2c[nH]c3ccccc23)NC(=O)CCSSCCN1 (stereo not drawn) [X W D7 B2 Acid 25] | 0.19 | 0.07 | – | – | –
O=C1CCSSCCNC(=O)C2CCCN(C2)C(=O)C2CN(C(=O)c3ccc(Cl)cc3)CCN2C(=O)C(Cc2c[nH]c3ccccc23)N1 (stereo not drawn) [X W D7 B4 Acid 25] | 0.15 | 0.07 | – | – | –

Reference: paper PMC9250534, “Synthesis and direct assay of large macrocycle diversities by combinatorial late-stage modification at picomole scale” (Nature Communications, 2022)
